In patent US20240279215A1 (Cytokinetics, Incorporated, priority 2022, published 2024):

Biological target: human NAMPT (Homo sapiens (Human), UniProt P43490)
Experiment: NMN fluorescence biochemical assay (human recombinant NAMPT enzyme assay)
Procedure, shortened: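 NMN formed was detected by fluorescence (Ex/Em 355/460 nm) after acetophenone, KOH and formic acid derivatization. The cell-free reaction ran 60 min at ambient temperature with 6 nM human NAMPT, 150 μM nicotinamide, 20 μM PRPP, 2.5 mM ATP, pH 7.2 HEPES, and compound dose responses.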

Chain of human NAMPT (P43490 whole entry): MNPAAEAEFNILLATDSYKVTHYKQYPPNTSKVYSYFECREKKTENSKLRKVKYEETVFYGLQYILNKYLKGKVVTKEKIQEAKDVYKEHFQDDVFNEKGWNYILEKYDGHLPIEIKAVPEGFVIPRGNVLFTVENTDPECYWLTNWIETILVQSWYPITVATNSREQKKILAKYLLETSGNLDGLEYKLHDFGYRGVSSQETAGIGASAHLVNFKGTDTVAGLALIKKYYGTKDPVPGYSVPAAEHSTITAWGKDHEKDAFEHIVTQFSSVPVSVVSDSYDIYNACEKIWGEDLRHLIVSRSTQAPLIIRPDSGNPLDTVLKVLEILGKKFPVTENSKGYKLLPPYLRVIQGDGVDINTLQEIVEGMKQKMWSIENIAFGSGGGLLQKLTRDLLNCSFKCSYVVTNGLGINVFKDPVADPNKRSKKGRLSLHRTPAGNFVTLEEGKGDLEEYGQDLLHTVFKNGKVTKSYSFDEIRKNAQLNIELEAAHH

| Compound | AC1.4 Human [µM] | EC50 [µM] |
| --- | --- | --- |
| O=C(Nc1ccc(CC2CCN(S(=O)(=O)C3CC3)CC2)cc1)OCc1cnco1 [Compound 460, oxazol-5-ylmethyl (4-((1-(cyclopropylsulfonyl)piperidin-4-yl)methyl)phenyl)carbamate] | 0.24 | 12.2 |
| O=C(Nc1ccc(CC2CCN(C(=O)N3CCCCC3)CC2)cc1)OCc1cnco1 [Compound 461, oxazol-5-ylmethyl (4-((1-(piperidine-1-carbonyl)piperidin-4-yl)methyl)phenyl)carbamate] | 0.13 | 9.34 |
| O=C(Nc1ccc(CC2CCN(C(=O)N3CCCC3)CC2)cc1)OCc1cnco1 [Compound 462, oxazol-5-ylmethyl (4-((1-(pyrrolidine-1-carbonyl)piperidin-4-yl)methyl)phenyl)carbamate] | 0.18 | 13.3 |
| O=C(Nc1ccc(CC2CCN(C(=O)N3CC(F)(F)C3)CC2)cc1)OCc1cnco1 [Compound 463, oxazol-5-ylmethyl (4-((1-(3,3-difluoroazetidine-1-carbonyl)piperidin-4-yl)methyl)phenyl)carbamate] | 0.42 | 43.6 |
| O=C(Nc1ccc(CC2CCN(S(=O)(=O)N3CCC3)CC2)cc1)OCc1cnco1 [Compound 465, oxazol-5-ylmethyl (4-((1-(azetidin-1-ylsulfonyl)piperidin-4-yl)methyl)phenyl)carbamate] | 0.14 | 7.25 |
| O=C(Nc1ccc(CC2CCN(C3COC3)CC2)cc1)OCc1cncs1 [Compound 466, thiazol-5-ylmethyl (4-((1-(oxetan-3-yl)piperidin-4-yl)methyl)phenyl)carbamate] | 1.19 | 14.5 |
| O=C(Nc1ccc(CC2CCN(CC(F)(F)F)CC2)cc1)OCc1cncs1 [Compound 467, thiazol-5-ylmethyl (4-((1-(2,2,2-trifluoroethyl)piperidin-4-yl)methyl)phenyl)carbamate] | 1.07 | 14.5 |
| O=C(Nc1ccc(CC2CCN(C(=O)N3CCC3)CC2)cc1)OCc1cnco1 [Compound 468, oxazol-5-ylmethyl (4-((1-(azetidine-1-carbonyl)piperidin-4-yl)methyl)phenyl)carbamate] | 0.13 | 14.5 |
| O=C(Nc1ccc(CC2CCN(C(=O)C3CCC3)CC2)cc1)OCc1cnco1 [Compound 469, oxazol-5-ylmethyl (4-((1-(cyclobutanecarbonyl)piperidin-4-yl)methyl)phenyl)carbamate] | 0.24 | 26.1 |
| O=C(Nc1ccc(CC2CCN(C(=O)C3CC(F)(F)C3)CC2)cc1)OCc1cnco1 [Compound 470, oxazol-5-ylmethyl (4-((1-(3,3-difluorocyclobutane-1-carbonyl)piperidin-4-yl)methyl)phenyl)carbamate] | 0.98 | 37.5 |
| O=C(Nc1ccc(CC2CCN(CC3CCO3)CC2)cc1)OCc1cnco1 (centres unmarked) [Compound 471, oxazol-5-ylmethyl (4-((1-(oxetan-2-ylmethyl)piperidin-4-yl)methyl)phenyl)carbamate] | 0.50 | 15 |
| CC(=O)N1CC2(CC(Cc3ccc(NC(=O)OCc4cnco4)cc3F)C2)C1 [Compound 472, oxazol-5-ylmethyl (4-((2-acetyl-2-azaspiro[3.3]heptan-6-yl)methyl)-3-fluorophenyl)carbamate] | 0.11 | 5.63 |
| tert-butyl 4-(4-(((oxazol-5-ylmethoxy)carbonyl)amino)phenethyl)piperidine-1-carboxylate [Compound 121] | 0.97 | 14.5 |
